Values of other authors as cited in patent US11207302B2, “1,2,5-oxadiazoles as inhibitors of indoleamine 2,3-dioxygenase” (Incyte Corporation, priority 2008, dated 2021).

Experiments:
LLC tumors = LLC tumors in C57Bl/6 mice, versus placebo
P815 tumor = details: pre-immunized immune-competent mice challenged with murine tumor cells

SMILES: Cn1cc(C[C@H](N)C(=O)O)c2ccccc21 [Example 1-MT, 1-methyl-tryptophan]
- formation of tumors (LLC tumors): markedly delayed
- growth of tumors (P815 tumor): inhibited
